Measured values published in ChEMBL document CHEMBL1201862, “PubChem BioAssay data set” (2004).
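96-well plates; 48 h exposure; 5 concentrations. Endpoints by linear interpolation between flanking doses. Not reached: highest tested concentration assigned. The concentration for 50% growth inhibition is given as GI50.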 Activity calls are given as the source filed them. Rule as the data show it: active = GI50 up to about 1.1 µM and inactive = higher.

Legend:
Assay in all cases: growth of human tumour cells (NCI), 48 h
A498 = system: A498
ACHN = system: ACHN
HL-60 = system: HL-60
HOP-92 = system: HOP-92
HT-29 = system: HT-29
IGROV-1 = system: IGROV-1
M14 = system: M14
NCI-H23 = system: NCI-H23
OVCAR-8 = system: OVCAR-8
SF-539 = system: SF-539
SK-OV-3 = system: SK-OV-3
SN12C = system: SN12C
SNB-75 = system: SNB-75
TK-10 = system: TK-10
UACC-257 = system: UACC-257
DU-145 = system: DU-145
Hs-578T = system: Hs-578T
MDA-MB-231 = system: MDA-MB-231
MDA-MB-435 = system: MDA-MB-435

Measured: GI50

O=S(=O)(O)C(F)(F)C(F)(F)C(F)(F)C(F)(F)F
inactive: A498 43.7 µM | ACHN > 100 µM | HL-60 > 100 µM | HOP-92 9.51 µM | HT-29 > 100 µM | IGROV-1 > 100 µM | M14 > 100 µM | NCI-H23 > 100 µM | OVCAR-8 > 100 µM | SF-539 > 100 µM | SK-OV-3 > 100 µM | SN12C > 100 µM | SNB-75 > 100 µM | TK-10 > 100 µM | UACC-257 > 100 µM

CN(C)C(=O)Nc1cc2c3c(c1)CCCN3CCC2
inactive: A498 4.57 µM | ACHN > 10 µM | DU-145 > 10 µM | HL-60 > 10 µM | HOP-92 > 10 µM | HT-29 > 10 µM | Hs-578T > 10 µM | IGROV-1 > 10 µM | M14 > 10 µM | MDA-MB-231 > 10 µM | MDA-MB-435 > 10 µM | NCI-H23 > 10 µM | OVCAR-8 > 10 µM | SF-539 > 10 µM | SK-OV-3 > 10 µM | SN12C > 10 µM | SNB-75 > 10 µM | TK-10 > 10 µM | UACC-257 > 10 µM

COC(=O)[C@@H]1C(=O)O[C@@H](c2ccc(OC)c(OC)c2OC)[C@@H]1C(=O)OC.COC(=O)[C@H]1C(=O)O[C@@H](c2ccc(OC)c(OC)c2OC)[C@@H]1C(=O)OC
inactive: A498 > 100 µM | ACHN > 100 µM | HL-60 > 100 µM | HOP-92 > 100 µM | HT-29 > 100 µM | IGROV-1 > 100 µM | M14 > 100 µM | NCI-H23 > 100 µM | OVCAR-8 > 100 µM | SF-539 > 100 µM | SK-OV-3 > 100 µM | SN12C > 100 µM | SNB-75 > 100 µM | TK-10 > 100 µM | UACC-257 > 100 µM

CCOC(OC1=CCCC1)C(C)[Se]c1ccccc1 (stereo not given)
inactive: A498 18.2 µM | ACHN 61.8 µM | HL-60 14.6 µM | HOP-92 51.2 µM | HT-29 23.3 µM | IGROV-1 41 µM | M14 36.4 µM | NCI-H23 26.9 µM | OVCAR-8 39.5 µM | SF-539 23.8 µM | SK-OV-3 > 100 µM | SN12C 30.7 µM | SNB-75 39.3 µM | TK-10 > 100 µM | UACC-257 36 µM

Cn1c(=O)c2[nH]c(Nc3cccc(Cl)c3)nc2n(C)c1=O
inactive: DU-145 4.76 µM | HL-60 3.31 µM | HOP-92 2.78 µM | HT-29 3.99 µM | IGROV-1 3.8 µM | M14 5.6 µM | MDA-MB-231 7.48 µM | MDA-MB-435 3.82 µM | NCI-H23 2.63 µM | OVCAR-8 6.17 µM | SK-OV-3 6.17 µM | SN12C 5.77 µM | SNB-75 4.86 µM | TK-10 8.91 µM | UACC-257 4.18 µM

CNC(=O)NCCN1CC2CCC(CC2)C1
inactive: A498 > 10 µM | ACHN > 10 µM | DU-145 > 10 µM | HL-60 > 10 µM | HT-29 > 10 µM | Hs-578T > 10 µM | IGROV-1 > 10 µM | M14 > 10 µM | MDA-MB-231 > 10 µM | MDA-MB-435 > 10 µM | NCI-H23 > 10 µM | OVCAR-8 > 10 µM | SF-539 > 10 µM | SK-OV-3 > 10 µM | SN12C > 10 µM | SNB-75 > 10 µM | TK-10 > 10 µM | UACC-257 > 10 µM

C[C@H]1C[C@H]2[C@@H]3C(C)(C)O[C@]4(O)C(=O)[C@]5(O)[C@@H](C)CC[C@H]1[C@]25C(=O)[C@]34C
inactive: A498 35 µM | ACHN 27.3 µM | DU-145 48.2 µM | HL-60 29.4 µM | HOP-92 8.61 µM | HT-29 26 µM | Hs-578T 37.5 µM | IGROV-1 64 µM | M14 71 µM | MDA-MB-231 > 100 µM | MDA-MB-435 32.8 µM | NCI-H23 30.3 µM | OVCAR-8 63.7 µM | SF-539 > 100 µM | SK-OV-3 82.4 µM | SN12C 80.2 µM | UACC-257 48.5 µM

CC1(C)CCC[C@]2(C)[C@H]3[C@H](C#N)c4cc(O)c(O)cc4O[C@@]3(C)CC[C@@H]12
inactive: A498 > 10 µM | ACHN > 10 µM | DU-145 > 10 µM | HL-60 > 10 µM | HOP-92 > 10 µM | Hs-578T > 10 µM | IGROV-1 > 10 µM | M14 > 10 µM | MDA-MB-231 > 10 µM | NCI-H23 > 10 µM | OVCAR-8 > 10 µM | SF-539 > 10 µM | SK-OV-3 > 10 µM | SN12C > 10 µM | TK-10 > 10 µM | UACC-257 > 10 µM
